Measurements taken from patent US20240400997A1, “TRANSFORMED HUMAN HEPATIC STELLATE CELL LINE AND USE THEREOF” (KOREA RESEARCH INSTITUTE OF BIOSCIENCE AND BIOTECHNOLOGY, priority 2020, published 2024).
Where two headings read alike, the source gives them in different places.

How the values were obtained:
CYP3A4 enzyme [1] = assay: Liver injury simulation in 3D co-cultures with HepaRG: CYP3A4 enzyme activity and albumin production; conditions: hydrogels and NP-hydrogels, K-HSC or LX-2 with HepaRG 1:1
CYP3A4 enzyme [2] = test system: CYP3A4 enzyme
TGF-β1 = assay: K-HSC/HepaRG 1:1 in 4% hydrogel with TGF-β1 and inhibitor A, 18-day culture, liver fibrosis marker expression; type: cell-based, human; conditions: K-HSC/HepaRG 1:1, 4% hydrogel, 18 days
Experimental: Meanwhile, the K-HSC was encapsulated with the hepatic cell line HepaRG at a ratio of 1:1 in a 4% hydrogel and then 3D cultured, and the groups were divided into experimental groups to which TGF-β1, which is a fibrosis-inducing material, and inhibitor A thereof were added individually or simultaneously, and a control group to which TGF-β1 and inhibitor A were not added. The groups were cultured for 18 days, and then the cell network formation and expression differences of fibrosis markers in the liver analogs were confirmed.

[3] = test system: primary human hepatic cells; assay: K-HSC and primary human hepatic cells 1:1 in hydrogel or nanoparticle-hydrogel, TGF-β1 cycles, albumin; type: cell-based; conditions: 10 ng/mL TGF-β1, 3 cycles, 24-day culture, K-HSC with primary human hepatic cells
Experimental: The K-HSC prepared in Example 1 was encapsulated with primary human hepatic cells (PHHs, Corning, USA) at a ratio of 1:1 in 4.5% polyethylene glycol/hyaluronic acid/RGD hydrogel using photopolymerization as described in Example 4. The cells frozen with nitrogen were thawed using recovery media (ThermoFisher, USA) and centrifuged, and then the number of cells were measured, and the cells were encapsulated with the K-HSC in a hydrogel, and then cultured for one day in a primary human hepatocyte plating medium (ThermoFisher, USA) containing 10% bovine serum. The medium was converted to a dedicated serum-free medium for primary human hepatic cells (Corning, USA), after 5 days, TGF-β1 inducing fibrosis, was added for 24 hours at a concentration of 10 ng/mL, and then converted back to a serum-free medium to which the TGF-β1 was not added in the following day, 3 cycles were performed, and the appearance change of the hydrogel was observed after the 24-day culture, and albumin production ability and expression levels of fibrosis markers were measured by RT-PCR.

Molecule | CYP3A4 enzyme activity and function (CYP3A4 enzyme [1]) | CYP3A4 enzyme activity and function (CYP3A4 enzyme [2]) | reactivity to TGF-β1 in expression of liver fibrosis markers (TGF-β1) | albumin degrading ability in the presence of TGF-β1 compared to control groups [3]
CN(Cc1cnc2nc(N)nc(N)c2n1)c1ccc(C(=O)N[C@@H](CCC(=O)O)C(=O)O)cc1 [MTX, methotrexate] | CYP3A4 enzyme activity and functional decrease were simulated | – | – | –
transforming growth factor beta 1 [TGF-β1] | – | CYP3A4 enzyme activity and functional decrease were simulated | confirmed in all markers except smooth muscle actin alpha (α-SMA) and lysyl oxidase (LOX) | deterioration
